Reference: PubChem BioAssay AID2060890 (Molecular Pharmacology Branch, DTP, NCI, 2025)

System: LG0703-F948-PDC complex spheroid viability
Test: Anticancer human tumor LG0703-F948-PDC patient-derived lung adenocarcinoma cell line growth inhibition [RAS]
Details: for viability, T/C: stronger effect = lower value
Summary of the method: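 Multi-cell-type spheroids: tumor cells plus HUVEC endothelial cells and mesenchymal stem cells. RAS-pathway inhibitors were combined with targeted agents, each dosed in half-log steps down from clinical Cmax, or from 10 microM when Cmax was unknown.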

[1] = curve of first compound, second compound 0.000949 µM
[2] = curve of first compound, second compound 0.003 µM
[3] = curve of first compound, second compound 0.00949 µM
[4] = curve of first compound, second compound 0.03 µM
[5] = curve of first compound, second compound 0.0949 µM
[6] = curve of first compound, second compound 0.3 µM
[7] = second compound 0.000949 µM, first compound 0.0316 µM
[8] = second compound 0.000949 µM, first compound 0.1 µM
[9] = second compound 0.000949 µM, first compound 0.316 µM
[10] = second compound 0.000949 µM, first compound 1 µM
[11] = second compound 0.000949 µM, first compound 3.16 µM
[12] = second compound 0.000949 µM, first compound 10 µM
[13] = second compound 0.003 µM, first compound 0.0316 µM
[14] = second compound 0.003 µM, first compound 0.1 µM
[15] = second compound 0.003 µM, first compound 0.316 µM
[16] = second compound 0.003 µM, first compound 1 µM
[17] = second compound 0.003 µM, first compound 3.16 µM
[18] = second compound 0.003 µM, first compound 10 µM
[19] = second compound 0.00949 µM, first compound 0.0316 µM
[20] = second compound 0.00949 µM, first compound 0.1 µM
[21] = second compound 0.00949 µM, first compound 0.316 µM
[22] = second compound 0.00949 µM, first compound 1 µM
[23] = second compound 0.00949 µM, first compound 3.16 µM
[24] = second compound 0.00949 µM, first compound 10 µM
[25] = second compound 0.03 µM, first compound 0.0316 µM
[26] = second compound 0.03 µM, first compound 0.1 µM
[27] = second compound 0.03 µM, first compound 0.316 µM
[28] = second compound 0.03 µM, first compound 1 µM
[29] = second compound 0.03 µM, first compound 3.16 µM
[30] = second compound 0.03 µM, first compound 10 µM
[31] = second compound 0.0949 µM, first compound 0.0316 µM
[32] = second compound 0.0949 µM, first compound 0.1 µM
[33] = second compound 0.0949 µM, first compound 0.316 µM
[34] = second compound 0.0949 µM, first compound 1 µM
[35] = second compound 0.0949 µM, first compound 3.16 µM
[36] = second compound 0.0949 µM, first compound 10 µM
[37] = second compound 0.3 µM, first compound 0.0316 µM
[38] = second compound 0.3 µM, first compound 0.1 µM
[39] = second compound 0.3 µM, first compound 0.316 µM
[40] = second compound 0.3 µM, first compound 1 µM
[41] = second compound 0.3 µM, first compound 3.16 µM
[42] = second compound 0.3 µM, first compound 10 µM
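Further: spheroids exposed to agents for 7 days.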
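Wherever viability, T/C is given: 100% = DMSO vehicle wells.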

`Cc1nc(N2CCC3(CC2)COC(C)C3N)c(CO)nc1Sc1ccnc(N)c1Cl` (stereo unspecified) + CCn1c(-c2cc(N3CCN(C)CC3)cnc2C(C)OC)c2c3cc(ccc31)-c1csc(n1)CC(NC(=O)C1CC1C)C(=O)N1CCCC(N1)C(=O)OCC(C)(C)C2 was tested, and the IC50 [1] was 93 nM, the IC50 [2] was less than 31.6 nM and the IC50 [3] was less than 31.6 nM. The IC50 [4] was less than 31.6 nM, the IC50 [5] was less than 31.6 nM and the IC50 [6] was less than 31.6 nM. It also gave a viability, T/C [7] of 68%, a viability, T/C [8] of 48% and a viability, T/C [9] of 32.7%. For the same molecule, the viability, T/C [10] was 18.2%, the viability, T/C [11] was 11.3% and the viability, T/C [12] was 8.65%. The viability, T/C [13] was 32.3%, the viability, T/C [14] was 23.9% and the viability, T/C [15] was 21.1%. The viability, T/C [16] was 14.9%, the viability, T/C [17] was 6.78% and the viability, T/C [18] was 5.16%. For the same molecule, the viability, T/C [19] was 26%, the viability, T/C [20] was 15.7% and the viability, T/C [21] was 10.6%. The viability, T/C [22] was 10.2%, the viability, T/C [23] was 6.57% and the viability, T/C [24] was 7.31%. The viability, T/C [25] was 13.2%, the viability, T/C [26] was 11.6% and the viability, T/C [27] was 8.59%. For the same molecule, the viability, T/C [28] was 4.72%, the viability, T/C [29] was 7.7% and the viability, T/C [30] was 5.42%. The viability, T/C [31] was 10.1%, the viability, T/C [32] was 7.94% and the viability, T/C [33] was 6.73%. The viability, T/C [34] was 6.62%, the viability, T/C [35] was 6.38% and the viability, T/C [36] was 3.71%. The viability, T/C [37] was 7.15%, the viability, T/C [38] was 6.24% and the viability, T/C [39] was 5.96%. The viability, T/C [40] was 3.97%, the viability, T/C [41] was 3.82% and the viability, T/C [42] was 4.35%.

With `CC(Nc1ccc2c(c1)OCCn1cc(N3C(=O)OCC3C(F)F)nc1-2)C(N)=O` (stereo unspecified) the viability, T/C (compound 0.0316 µM) was 96.2% [middle of 4 runs], the viability, T/C (compound 0.1 µM) was 88.9% [middle of 4 runs] and the viability, T/C (compound 1 µM) was 56.3% [middle of 4 runs]. For the same molecule, the viability, T/C (compound 3.16 µM) was 45% [middle of 4 runs] and the viability, T/C (compound 10 µM) was 27.8% [middle of 4 runs].

With `C=CC(=O)N1CCN(c2nc(OCC3CCCN3C)nc3c(F)c(-c4nc(N)cc(C)c4C(F)(F)F)c(Cl)cc23)C(C)C1` (stereo unspecified) the viability, T/C (compound 0.01 µM) was 102% [middle of 11 runs], the viability, T/C (compound 0.1 µM) was 106% [middle of 11 runs] and the viability, T/C (compound 1 µM) was 112% [middle of 11 runs]. The IC50 (compound alone, run of 09/09/2024) was greater than 1000 nM and the IC50 (curve of compound) was greater than 1000 nM.

With `CC(C)NCC(C(=O)N1CCN(c2ncnc3c2C(C)CC3O)CC1)c1ccc(Cl)cc1` (stereo unspecified) + CCn1c(-c2cc(N3CCN(C)CC3)cnc2C(C)OC)c2c3cc(ccc31)-c1csc(n1)CC(NC(=O)C1CC1C)C(=O)N1CCCC(N1)C(=O)OCC(C)(C)C2 the IC50 [1] was 127 nM, the IC50 [2] was 34.1 nM and the IC50 [3] was less than 31.6 nM. The IC50 [4] was less than 31.6 nM, the IC50 [5] was less than 31.6 nM and the IC50 [6] was less than 31.6 nM. It also gave a viability, T/C [7] of 64.1%, a viability, T/C [8] of 54% and a viability, T/C [9] of 37.1%. It also gave a viability, T/C [10] of 30%, a viability, T/C [11] of 17.6% and a viability, T/C [12] of 14.5%. For the same molecule, the viability, T/C [13] was 51%, the viability, T/C [14] was 35% and the viability, T/C [15] was 18%. The viability, T/C [16] was 13.1%, the viability, T/C [17] was 12.7% and the viability, T/C [18] was 8.04%. The viability, T/C [19] was 23.2%, the viability, T/C [20] was 16.7% and the viability, T/C [21] was 10.3%. It also gave a viability, T/C [22] of 7.8%, a viability, T/C [23] of 6.46% and a viability, T/C [24] of 3.27%. The viability, T/C [25] was 11.7%, the viability, T/C [26] was 13.7% and the viability, T/C [27] was 7.73%. For the same molecule, the viability, T/C [28] was 3.93%, the viability, T/C [29] was 3.49% and the viability, T/C [30] was 1%. The viability, T/C [31] was 10%, the viability, T/C [32] was 6.85% and the viability, T/C [33] was 4.55%. For the same molecule, the viability, T/C [34] was 3.71%, the viability, T/C [35] was 1.27% and the viability, T/C [36] was 0.64%. The viability, T/C [37] was 9.37%, the viability, T/C [38] was 5.76% and the viability, T/C [39] was 5.01%. The viability, T/C [40] was 3.25%, the viability, T/C [41] was 1.87% and the viability, T/C [42] was 0.61%.

Molecule `CC(C)n1nc(-c2ccc3oc(N)nc3c2)c2c(N)ncnc21` + CCn1c(-c2cccnc2C(C)OC)c2c3cc(ccc31)N1CCOC(CC(NC(=O)C(C(C)C)N(C)C(=O)C3(F)CCN(C(=O)C#CC(C)(C)N(C)C)CC3)C(=O)N3CCCC(N3)C(=O)OCC(C)(C)C2)C1 has an IC50 [1] of 6.03 nM, an IC50 [2] of 8.31 nM and an IC50 [3] of 7.72 nM. It also gave an IC50 [4] of 8.1 nM, an IC50 [5] of 1.85 nM and an IC50 [6] of less than 0.316 nM. The viability, T/C (second compound 0.000949 µM, first compound 0.000316 µM) was 105%, the viability, T/C (second compound 0.000949 µM, first compound 0.001 µM) was 72.7% and the viability, T/C (second compound 0.000949 µM, first compound 0.00316 µM) was 64.1%. For the same molecule, the viability, T/C (second compound 0.000949 µM, first compound 0.01 µM) was 43.5%, the viability, T/C [7] was 27% and the viability, T/C [8] was 19.9%. It also gave a viability, T/C (second compound 0.003 µM, first compound 0.000316 µM) of 87%, a viability, T/C (second compound 0.003 µM, first compound 0.001 µM) of 79.4% and a viability, T/C (second compound 0.003 µM, first compound 0.00316 µM) of 65%. The viability, T/C (second compound 0.003 µM, first compound 0.01 µM) was 49.8%, the viability, T/C [13] was 25.5% and the viability, T/C [14] was 17.9%. It also gave a viability, T/C (second compound 0.00949 µM, first compound 0.000316 µM) of 88.2%, a viability, T/C (second compound 0.00949 µM, first compound 0.001 µM) of 83.8% and a viability, T/C (second compound 0.00949 µM, first compound 0.00316 µM) of 59.9%. For the same molecule, the viability, T/C (second compound 0.00949 µM, first compound 0.01 µM) was 48.2%, the viability, T/C [19] was 28.7% and the viability, T/C [20] was 17.2%. The viability, T/C (second compound 0.03 µM, first compound 0.000316 µM) was 92.4%, the viability, T/C (second compound 0.03 µM, first compound 0.001 µM) was 87.6% and the viability, T/C (second compound 0.03 µM, first compound 0.00316 µM) was 68.8%. For the same molecule, the viability, T/C (second compound 0.03 µM, first compound 0.01 µM) was 46.8%, the viability, T/C [25] was 23.9% and the viability, T/C [26] was 15.6%. The viability, T/C (second compound 0.0949 µM, first compound 0.000316 µM) was 67.4%, the viability, T/C (second compound 0.0949 µM, first compound 0.001 µM) was 57.5% and the viability, T/C (second compound 0.0949 µM, first compound 0.00316 µM) was 41.2%. It also gave a viability, T/C (second compound 0.0949 µM, first compound 0.01 µM) of 36.8%, a viability, T/C [31] of 18.5% and a viability, T/C [32] of 13.2%. The viability, T/C (second compound 0.3 µM, first compound 0.000316 µM) was 43.3%, the viability, T/C (second compound 0.3 µM, first compound 0.001 µM) was 36.8% and the viability, T/C (second compound 0.3 µM, first compound 0.00316 µM) was 29.3%. The viability, T/C (second compound 0.3 µM, first compound 0.01 µM) was 21.9%, the viability, T/C [37] was 11.7% and the viability, T/C [38] was 8.29%.
